Values joined by “and” are separate entries in the source; they are usually repeats but may differ in a detail not shown here. Identical values can stand only once. Like-named read-outs stand apart in the source and are kept apart here.
Tests used:
[1] = Plasma total drug concentration in bleomycin model (LC-MS/MS); type: in vivo, mouse; conditions: 2 h after last dose, Day 19; MK-0429 200 mpk minipump, Nintedanib 60 mpk po qd; mean ± SE
Method: Mice at 12 ~ 13 weeks of age were randomized to 5 groups: saline, bleomycin instillation with vehicle (osmotic minipump), bleomycin instillation with MK-0429 treatment, bleomycin instillation with vehicle oral treatment, and bleomycin instillation with Nintedanib treatment. All mice were anaesthetized with isoflurane. Bleomycin was dosed by intra-tracheal (i.t) instillation in a volume of 50 µl, at a dose of 1unit /kg body weight. After instillation, mice were kept in a heads-up position for 2–5 min before putting into cages. MK-0429 (200 mg/kg) was administered by Osmotic pump from day 5 to day 14 and Nintedanib (60 mg/kg) was administered, p.o., q.d., for 14 days. Vehicle was dosed orally at 10 am daily from the day 5 to the end of the studies and dosing volume was 10 mL/kg. For plasma PK analysis, an aliquot of 50 μL plasma was spiked into a 96-well plate, and 200 μL of acetonitrile containing internal standard were added for protein precipitation. The mixture was vortexed, centrifuged at 4000 rpm for 20 min. 50 μL of supernatant were mixed with 200 μl H2O and the final solution were injected for LC–MS/MS analysis. The methods for quantitative analysis were developed on UPLC (Waters) chromatographic system equipped with an API4000 QTrap mass spectrometer (Applied Biosystems, Concord, Ontario, Canada). […]

human αvβ8 = human αvβ8 (Homo sapiens, UniProt P06756+P26012); assay: AlphaLISA integrin-ligand binding assay; type: biochemical; set-up: hαV 1 992; hβ8 1 684; made in house; host or cells: Expi293
Method: (§1) In the AlphaLISA integrin assays, we used a HEPES based buffer (25 mM HEPES pH 7.4, 137 mM NaCl, 1 mM MgCl2, 1 mM MnCl2, 2 mM CaCl2, 2.7 mM KCl, and 0.05% Tween-20). Optimal assay conditions were determined with a titration of the reagents for signal noise ratio (S/N), linear range, etc. For the respective integrins, we used the final concentrations described in Supplemental Table S3. Briefly, the testing antibody (8 μL) was added as a 4x (of Final testing concentration) solution in the HEPES buffer described previously into a 384w AlphaPlate (Perkin Elmer #6005350). Then the integrin and ligand were added sequentially as 8x (4 μL each). Plates were sealed and incubated at room temperature for 2 h. Then 4 × acceptor bead solution (8 μL) was added, and the plates were resealed and incubated at RT for 1 h. Finally, 4 × (8 μL) donor beads solution was added in a darkened room and incubated for 45 min at room temperature. Plates were read on the Envision (Perkin Elmer) in AlphaScreen mode within 3 h of donor bead addition.
(§2) Supplemental Table S3. integrin AlphaLIS A assay reagents and conditions Human A l phal i sa Inte gri n A ssays: Fi nal Condi ti ons […]
(§3) ( batch de pe nde nt) anti body A l phaLi sa A cce ptor havb1 1. 4 nM 1. 0 nMα - Fi brone cti n human Fi brone cti n n/a A cce ptor be ads/ Pe rki n 10. 0 ug/ m 10. 0 ug/ m […]
(§4) havb3 3. 0 nM 10. […]

mouse αvβ1 = mouse αvβ1 (Mus musculus, UniProt P09055+P43406); assay: AlphaLISA integrin-ligand binding assay; type: biochemical; set-up: mαV 1 988; m β1 1 728; made in house; host or cells: Expi293; conditions: Fig. 4B; read-out: IC50 Mouse integrin AlphaLISA assays: mαvβ1
Method: as §1, §2, §3, §4

osteoporosis patients = tested on: osteoporosis patients; set-up: method as in PMID 15687321, PMID 20398037; conditions: 52 weeks; cited from earlier work
human αvβ1 = human αvβ1 (Homo sapiens, UniProt P05556+P06756); assay: AlphaLISA integrin-ligand binding assay; type: biochemical; set-up: hαV 1 992; hβ1 1 728; made in house; host or cells: Expi293
Method: as §1, §2, §3, §4

Sequence of human αvβ1 (P06756 31-992): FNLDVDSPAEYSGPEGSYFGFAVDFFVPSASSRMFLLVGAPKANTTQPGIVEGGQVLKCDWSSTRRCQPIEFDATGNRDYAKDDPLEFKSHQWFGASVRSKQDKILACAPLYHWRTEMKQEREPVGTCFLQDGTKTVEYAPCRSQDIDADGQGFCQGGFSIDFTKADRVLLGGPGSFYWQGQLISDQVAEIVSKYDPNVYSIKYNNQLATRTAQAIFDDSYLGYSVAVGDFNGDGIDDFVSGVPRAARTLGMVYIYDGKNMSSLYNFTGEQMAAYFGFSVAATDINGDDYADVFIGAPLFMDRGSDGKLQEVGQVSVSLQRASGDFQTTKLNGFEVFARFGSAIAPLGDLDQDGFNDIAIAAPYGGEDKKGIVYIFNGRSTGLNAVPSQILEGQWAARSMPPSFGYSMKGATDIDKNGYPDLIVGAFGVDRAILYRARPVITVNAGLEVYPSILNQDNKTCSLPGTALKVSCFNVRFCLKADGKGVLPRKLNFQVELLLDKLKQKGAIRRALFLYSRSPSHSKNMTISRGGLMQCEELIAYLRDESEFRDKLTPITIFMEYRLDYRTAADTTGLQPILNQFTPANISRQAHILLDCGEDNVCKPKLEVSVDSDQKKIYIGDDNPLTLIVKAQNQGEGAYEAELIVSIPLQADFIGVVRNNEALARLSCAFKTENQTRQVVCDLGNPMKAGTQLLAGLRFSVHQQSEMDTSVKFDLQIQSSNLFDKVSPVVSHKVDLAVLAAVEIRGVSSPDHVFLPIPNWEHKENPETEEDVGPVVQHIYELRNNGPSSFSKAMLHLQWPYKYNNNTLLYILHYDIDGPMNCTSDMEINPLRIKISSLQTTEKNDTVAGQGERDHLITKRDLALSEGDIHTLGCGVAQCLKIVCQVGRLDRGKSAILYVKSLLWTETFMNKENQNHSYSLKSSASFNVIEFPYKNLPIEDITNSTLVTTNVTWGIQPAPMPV
Sequence of human αvβ1 (P05556 21-728): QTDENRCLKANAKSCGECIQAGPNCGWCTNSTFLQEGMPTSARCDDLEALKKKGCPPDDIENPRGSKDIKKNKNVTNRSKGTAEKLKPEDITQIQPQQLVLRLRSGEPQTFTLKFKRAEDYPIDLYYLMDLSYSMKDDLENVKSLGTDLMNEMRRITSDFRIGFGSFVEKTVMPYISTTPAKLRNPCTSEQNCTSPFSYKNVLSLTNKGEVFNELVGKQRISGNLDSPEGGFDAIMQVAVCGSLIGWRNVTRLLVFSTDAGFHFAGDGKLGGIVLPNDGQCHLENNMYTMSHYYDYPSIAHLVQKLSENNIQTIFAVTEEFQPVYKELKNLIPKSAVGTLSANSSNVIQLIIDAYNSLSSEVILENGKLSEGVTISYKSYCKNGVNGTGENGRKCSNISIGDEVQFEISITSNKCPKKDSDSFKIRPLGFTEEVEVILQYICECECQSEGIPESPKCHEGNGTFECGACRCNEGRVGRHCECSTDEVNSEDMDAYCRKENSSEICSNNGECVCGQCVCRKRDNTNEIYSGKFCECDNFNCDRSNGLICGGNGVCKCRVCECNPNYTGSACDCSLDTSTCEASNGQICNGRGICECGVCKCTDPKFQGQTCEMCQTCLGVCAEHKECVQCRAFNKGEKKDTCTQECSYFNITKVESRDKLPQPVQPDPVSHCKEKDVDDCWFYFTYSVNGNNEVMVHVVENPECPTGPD
Sequence of human αvβ8 (P06756 31-992): as the sequence (P06756 31-992) above
Sequence of human αvβ8 (P26012 43-684): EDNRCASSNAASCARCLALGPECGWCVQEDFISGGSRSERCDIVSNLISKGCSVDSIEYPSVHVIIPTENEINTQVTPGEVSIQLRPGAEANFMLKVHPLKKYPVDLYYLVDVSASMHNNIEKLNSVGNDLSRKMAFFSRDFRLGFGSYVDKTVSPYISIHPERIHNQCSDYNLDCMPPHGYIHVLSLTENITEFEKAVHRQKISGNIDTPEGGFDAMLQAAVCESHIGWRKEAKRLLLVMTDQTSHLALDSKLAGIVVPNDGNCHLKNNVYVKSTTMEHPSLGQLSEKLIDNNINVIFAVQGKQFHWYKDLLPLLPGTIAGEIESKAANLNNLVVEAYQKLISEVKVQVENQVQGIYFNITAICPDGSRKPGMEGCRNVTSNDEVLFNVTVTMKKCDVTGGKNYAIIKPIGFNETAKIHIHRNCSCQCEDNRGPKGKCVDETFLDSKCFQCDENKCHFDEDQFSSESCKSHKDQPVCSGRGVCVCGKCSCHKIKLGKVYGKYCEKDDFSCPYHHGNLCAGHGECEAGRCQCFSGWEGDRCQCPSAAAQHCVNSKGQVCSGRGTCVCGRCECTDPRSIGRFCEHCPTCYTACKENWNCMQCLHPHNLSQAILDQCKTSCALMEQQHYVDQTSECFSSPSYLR
Sequence of mouse αvβ1 (P43406 31-988): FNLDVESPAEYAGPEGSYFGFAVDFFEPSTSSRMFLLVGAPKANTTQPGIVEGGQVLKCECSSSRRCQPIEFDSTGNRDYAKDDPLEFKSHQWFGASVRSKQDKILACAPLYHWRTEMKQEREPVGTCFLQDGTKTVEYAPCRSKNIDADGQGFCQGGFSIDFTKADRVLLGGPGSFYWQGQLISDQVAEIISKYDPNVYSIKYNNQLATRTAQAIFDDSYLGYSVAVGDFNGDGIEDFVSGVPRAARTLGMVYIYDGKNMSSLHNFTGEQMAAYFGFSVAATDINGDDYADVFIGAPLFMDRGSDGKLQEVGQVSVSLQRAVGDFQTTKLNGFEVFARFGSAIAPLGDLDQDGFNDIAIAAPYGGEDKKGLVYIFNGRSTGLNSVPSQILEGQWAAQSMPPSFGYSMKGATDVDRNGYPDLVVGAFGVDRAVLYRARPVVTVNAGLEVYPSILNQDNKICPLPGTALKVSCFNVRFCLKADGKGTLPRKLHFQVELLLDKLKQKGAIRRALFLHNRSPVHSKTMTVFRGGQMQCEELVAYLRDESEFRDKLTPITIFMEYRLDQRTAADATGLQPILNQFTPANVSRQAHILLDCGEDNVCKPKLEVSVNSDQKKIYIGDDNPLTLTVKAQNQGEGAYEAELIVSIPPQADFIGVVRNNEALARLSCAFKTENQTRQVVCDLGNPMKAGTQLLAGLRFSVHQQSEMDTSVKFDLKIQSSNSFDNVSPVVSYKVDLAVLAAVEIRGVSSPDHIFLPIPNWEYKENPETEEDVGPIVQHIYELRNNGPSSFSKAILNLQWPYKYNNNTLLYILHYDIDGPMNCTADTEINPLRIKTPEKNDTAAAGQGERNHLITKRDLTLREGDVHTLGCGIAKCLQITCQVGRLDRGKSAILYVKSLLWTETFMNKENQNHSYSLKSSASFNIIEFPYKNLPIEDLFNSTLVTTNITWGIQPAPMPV
Sequence of mouse αvβ1 (P09055 21-728): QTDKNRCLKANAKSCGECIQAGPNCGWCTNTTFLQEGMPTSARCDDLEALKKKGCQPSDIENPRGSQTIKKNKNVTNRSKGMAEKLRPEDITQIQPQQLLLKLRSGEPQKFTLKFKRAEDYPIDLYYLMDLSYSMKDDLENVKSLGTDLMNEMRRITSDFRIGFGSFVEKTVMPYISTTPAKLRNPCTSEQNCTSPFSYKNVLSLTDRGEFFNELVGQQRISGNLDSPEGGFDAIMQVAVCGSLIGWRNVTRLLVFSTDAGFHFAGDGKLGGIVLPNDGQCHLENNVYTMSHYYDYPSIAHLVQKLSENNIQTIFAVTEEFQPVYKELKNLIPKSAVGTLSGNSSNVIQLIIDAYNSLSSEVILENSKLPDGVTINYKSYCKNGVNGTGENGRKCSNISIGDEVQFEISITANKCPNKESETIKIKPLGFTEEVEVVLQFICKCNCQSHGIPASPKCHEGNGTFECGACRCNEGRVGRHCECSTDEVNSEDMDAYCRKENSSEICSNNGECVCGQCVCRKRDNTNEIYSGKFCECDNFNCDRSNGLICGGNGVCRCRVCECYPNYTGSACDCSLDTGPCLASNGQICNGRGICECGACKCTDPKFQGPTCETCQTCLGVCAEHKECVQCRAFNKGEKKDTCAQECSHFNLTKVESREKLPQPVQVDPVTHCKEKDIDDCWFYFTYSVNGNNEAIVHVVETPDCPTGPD

Mean plasma total drug concentration [1]: 3701 ng/mL and 3701 ± 902 ng/mL | IC50 (human αvβ8; Fig. 3D, assay optimisation, read-out: IC50 human αvβ8 AlphaLISA): 58.3 nM | IC50 (human αvβ8; Fig. 4B, read-out: IC50 Human integrin AlphaLISA assays: hαvβ8): 3.1 nM | IC50 (mouse αvβ1): 1.3 nM | IC50 (human αvβ1; Fig. 3D, assay optimisation, read-out: IC50 human αvβ1 AlphaLISA): 0.46 nM | IC50 (human αvβ1; Fig. 4B, read-out: IC50 Human integrin AlphaLISA assays: hαvβ1): 1 nM
Compound: COc1ccc(C(CC(=O)O)N2CCN(CCCc3ccc4c(n3)NCCC4)C2=O)cn1 (stereo not shown) [MK-0429]
Safety profile (osteoporosis patients): relatively well-tolerated
